In patent US11700767B2, “Condensed cyclic compound, composition including the condensed cyclic compound, and organic light-emitting device including the composition” (SAMSUNG ELECTRONICS CO., LTD., priority 2017, dated 2023):

Assay: Measurement of solubility in methyl benzoate (Evaluation Example 1)
Type: physicochemical
Details: for Solubility: solvent methyl benzoate, room temperature, ultrasonic irradiation, visual check; for solubility in an organic solvent, as compared with host-c: qualitative statement referring to Table 1
Description: 50 milligrams (mg) of Compound 1-1 and 450 mg of methyl benzoate (solvent) were added to a colorless sample bottle, the mixture was irradiated with ultrasonic waves at room temperature for 5 minutes, and the presence or absence of Compound 1-1 was visually confirmed. […] If Compound 1-1 remained, a small amount of the solvent was added, the irradiation with ultrasonic waves was repeated, and an amount of the solvent was measured until Compound 1-1 was completely dissolved. The solubility was calculated from an amount of the solvent finally used. The solubility values of Compound 1-2 and host-c were calculated in the same manner.

Solubility [weight %]	solubility in an organic solvent, as compared with host-c	SMILES
0.1		c1ccc(-c2nc(-c3ccccc3)nc(-c3cc(-n4c5ccccc5c5ccccc54)cc4c3oc3ccccc34)n2)cc1 [host-c, reference compound]
4	high solubility	c1ccc(-c2cccc(-c3cccc(-c4ccc5c(c4)c4ccccc4n5-c4ccc(-c5cccc(-c6cc(-c7cccc(-c8cccc(-c9cccc(-c%10nc(-c%11ccccc%11)nc(-c%11ccccc%11)n%10)c9)c8)c7)c7oc8ccccc8c7c6)c5)cc4)c3)c2)cc1 [Compound 1-2]
4	high solubility	c1ccc(-c2cccc(-c3cccc(-c4ccc5c(c4)c4ccccc4n5-c4ccc(-c5cccc(-c6cc(-c7ccc(-c8cccc(-c9nc(-c%10ccccc%10)nc(-c%10ccccc%10)n9)c8)cc7)c7oc8ccccc8c7c6)c5)cc4)c3)c2)cc1 [Compound 1-1]
